For this test, the species on record is Rattus norvegicus. As to the kind of experiment: Minimum effective concentration required to abolish the response to an ED75 dose of ANG II (10e-8 M) in the isolated rat uterus assay. The settings on record: read-out: MEC. The test is classed as functional.

Positions of bridges follow the written chain, without caps; N, C: chain ends. Residues, ends and D or L forms follow the SMILES beside them. Chains are numbered I, II in the order given.

From ChEMBL document CHEMBL1122738, “A cyclic angiotensin antagonist: [1,8-cysteine]angiotensin II” (1984) come the findings set out here.

Regarding `CC[C@H](C)[C@H](NC(=O)[C@H](Cc1ccc(O)cc1)NC(=O)[C@@H](NC(=O)[C@H](CCCN=C(N)N)NC(=O)[C@@H](N)CSCNC(C)=O)C(C)C)C(=O)N[C@@H](Cc1c[nH]cn1)C(=O)N1CCC[C@H]1C(=O)N[C@@H](CSCNC(C)=O)C(=O)O`, the minimal effective concentration came out at 0.24 µM. As for `CC[C@H](C)[C@H](NC(=O)[C@@H]1CCCN1C(=O)[C@H](Cc1c[nH]cn1)NC(=O)[C@@H](NC(=O)[C@H](Cc1ccc(O)cc1)NC(=O)[C@@H](NC(=O)[C@H](CCCN=C(N)N)NC(=O)CNC)C(C)C)[C@@H](C)CC)C(=O)O`, the minimal effective concentration was determined as 0.021 µM. As for `CC[C@H](C)[C@@H]1NC(=O)[C@H](Cc2ccc(O)cc2)NC(=O)[C@H](C(C)C)NC(=O)[C@H](CCCN=C(N)N)NC(=O)[C@@H](N)CSSC[C@@H](C(=O)O)NC(=O)[C@@H]2CCCN2C(=O)[C@H](Cc2c[nH]cn2)NC1=O` (H-CRVYIHPC-OH; disulfide 1-8), the figure is 3.3 µM; as for `CC[C@H](C)[C@@H]1NC(=O)[C@H](Cc2ccc(O)cc2)NC(=O)[C@H](C(C)C)NC(=O)[C@H](CCCN=C(N)N)NC(=O)[C@@H](N)CSSC[C@H](N)C(=O)N[C@@H](CCCN=C(N)N)C(=O)N[C@@H](C(C)C)C(=O)N[C@@H](Cc2ccc(O)cc2)C(=O)N[C@@H]([C@@H](C)CC)C(=O)N[C@@H](Cc2c[nH]cn2)C(=O)N2CCC[C@H]2C(=O)N[C@H](C(=O)O)CSSC[C@@H](C(=O)O)NC(=O)[C@@H]2CCCN2C(=O)[C@H](Cc2c[nH]cn2)NC1=O` (I: H-CRVYIHPC-OH / II: H-CRVYIHPC-OH; disulfide I:1-II:1, I:8-II:8), 9.6 µM.
